Results reported in paper PMC5522442, “β-Ginkgotides: Hyperdisulfide-constrained peptides from Ginkgo biloba” (Scientific Reports, 2017).
Bridge positions count the residues as written; N and C are the ends. Peptide text beside a SMILES is read from it.

Assays:
Vero cell line = test: In vitro cytotoxicity (MTT), Vero cells; assay type: cell-based; details: concentrations up to 100 µM, 24 hr
[1] = Enzymatic stability against carboxypeptidase A; assay type: in vitro ADME; details: isolated enzyme carboxypeptidase; exopeptidase carboxypeptidase A (method prints 100 nM carboxypeptidase B), up to 6 hr, 37 °C, 50 mM Tris-HCl pH 7.5, 100 mM NaCl; 28 µg peptide; UPLC peak area with MALDI-TOF MS; read-out: peptide remaining after carboxypeptidase A
BHK cell line = test: In vitro cytotoxicity (MTT), BHK cells; assay type: cell-based; details: concentrations up to 100 µM, 24 hr
[2] = system: erythrocytes obtained from human type O blood; test: Hemolytic effect on erythrocytes; assay type: cell-based; details: human type O erythrocytes in PBS; concentrations up to 100 µM; 4 hr, 37 °C; read at 415 nm
Method: Erythrocytes were isolated from fresh blood type O+ by centrifugation for 15 min at 10000 rpm. The erythrocytes were diluted with phosphate-buffered saline, mixed with various concentrations of β-ginkgotide β-gB1 (1–100 µM) and incubated for 4 hr at 37 °C. The hemolytic effect was examined using a microplate reader set at 415 nm^3.

[3] = Enzymatic stability against trypsin; assay type: in vitro ADME; details: isolated enzyme trypsin; endopeptidase trypsin, up to 6 hr, 37 °C, 100 mM ammonium bicarbonate pH 7.8; 28 µg peptide; quenched with 1 M HCl; UPLC peak area with MALDI-TOF MS; read-out: peptide remaining after trypsin
Method: The β-ginkgotide β-gB1 (28 µg) was added to 100 µL of 100 mM ammonium bicarbonate buffer (pH 7.8) and incubated in a water bath at 37 °C for 6 hr. At each time-point (0 and 6 hr), 20 µL of the treated sample was aliquoted and quenched by adding 5 µL of 1 M hydrochloric acid.
The reaction mixture was analyzed by a Nexera UHPLC system (Shimadzu, Kyoto, Japan) equipped with an Aeris peptide XB-C18 column (Phenomenex, CA, USA; particle size 3.6 µm, 100 × 4.6 mm). The eluents were monitored with MALDI-TOF MS, and the area under the peak before and after the treatment was determined to evaluate stability.
Figure S5. Stability assays of β-gB1. (A) Thermal stability of β-gB1 incubated at 100 °C for 120 minutes. (B) Acidic condition stability of […] incubated in 0.2 M HCl (pH 2.0) at 37 °C for 120 minutes. […] The molecular weight of the peak was determined by MALDI-TOF MS.

With `CC[C@H](C)[C@@H]1NC(=O)[C@@H]2CSSC[C@H](NC(=O)CNC(=O)[C@@H](NC(=O)[C@H](CCC(=O)O)NC(=O)[C@@H](N)Cc3ccc(O)cc3)[C@@H](C)O)C(=O)N[C@@H](CCCCN)C(=O)N[C@@H](CCCNC(=N)N)C(=O)N[C@H]3CSSC[C@@H](C(=O)O)NC(=O)[C@H](CSSC[C@H](NC3=O)C(=O)N[C@@H](Cc3ccc(O)cc3)C(=O)N[C@@H](CC(C)C)C(=O)N[C@@H](CC(=O)O)C(=O)N[C@@H](CCC(=O)O)C(=O)N[C@@H](Cc3ccc(O)cc3)C(=O)NCC(=O)N2)NC(=O)[C@H](CCCNC(=N)N)NC1=O` [β-gB1] (H-YETGCKRCCYLDEYGCIRCC-OH; disulfide 5-16, 8-20, 9-19) the “cytotoxic effect, Vero cells” value (Vero cell line) was “nontoxic”, the remaining at 6 h [1] was > 90% and the “cytotoxic effect, BHK cells” value (BHK cell line) was “nontoxic”. The hemolytic effect [2] was “no hemolytic effect” and the remaining at 6 h [3] was > 90%.
